In PMC3283556, “The Activities of Current Antimalarial Drugs on the Life Cycle Stages of Plasmodium: A Comparative Study with Human and Rodent Parasites” (PLoS Medicine, 2012):
Entries after “also recorded” stand apart in the source; their conditions may differ. Like-named read-outs stand apart in the source and are kept apart here.

Columns and labels:
[1] = system: P. falciparum mature gametocytes / male gamete exflagellation; test: P. falciparum exflagellation assay; format: cell-based, Plasmodium falciparum; details: for inhibition at 10 µM: Plasmodium falciparum
Experimental: After 24 h, exflagellation was triggered by a temperature decrease to ∼21°C and observed 20 min later under the microscope. Highly motile exflagellation centres were recorded for ∼50–150 adjacent fields of view and reported per 10,000 RBCs.
(§1) (A) Assays examined exflagellation (P. falciparum), ookinete formation (P. berghei), or oocyst formation (P. falciparum). All antimalarials were screened at 10 µM. (B) The biological content of the in vitro P. berghei ookinete assay spans gamete formation, fertilization, zygote development, and ookinete formation. […] (D) The in vitro P. falciparum exflagellation assay exposes mature gametocytes to antimalarials for 24 h before triggering exflagellation. […] All experiments in triplicate. (E) The in vivo P. falciparum oocyst assay differs from the P. berghei oocyst assay in that mature gametocytes were exposed to the antimalarials in culture for 24 h before feeding to mosquitoes.

Plasmodium oocysts = test: Oocyst development / sporogony, Plasmodium species not stated at the place; format: in vivo; details: for inhibition at 10 µM: Plasmodium, box linked to oocysts, read-out: Inhibition at 10 μM (oocysts, Figure 5); for effect on sporogony / oocyst production: species not given
Experimental: (§2) Membrane feeds were performed as described previously. Briefly, PbGFPcon-infected mouse blood was mixed with compounds, immediately placed into membrane feeders (39°C) and offered for 30 min to 80–100 overnight-starved A. stephensi (SDA 500 strain). After 7–9 d at 19°C/80%RH, mosquito midguts were dissected out. Midguts were fixed with paraformaldehyde and oocyst number was determined microscopically by semi-automated analysis as previously described.
Gametocyte cultures were produced according to the same protocol as the Pf exflagellation assay. Pooled gametocyte cultures were evenly divided between compounds in fresh medium and incubated at 37°C for 24 h. The parasite pellets were then resuspended in fresh RBCs and human serum treated with the compounds to a 50% haematocrit and immediately fed to mosquitoes as described above and then maintained at 27°C/60%RH for 10–12 d before dissection and counting. […]

[2] = system: P. falciparum and P. vivax; parameters: method as in personal communication, MMV; details: phase IIa, P. falciparum and P. vivax patients; ref personal communication, MMV; cited from earlier work
[3] = parameters: method as in PMID 22759078, PMID 17053895, PMID 18694333, PMID 18840754, PMID 19776738; details: human blood, therapeutic / relevant doses; cited from earlier work
[4] = system: P. yoelii liver stage parasites (liver schizonts); test: P. yoelii liver stage assay in HepG2 cells (EEF immunofluorescence); format: cell-based, Plasmodium yoelii; details: Plasmodium yoelii
Experimental: (§3) 7.5×10^3 HepG2 cells in 50 µl of medium (1.5×10^5 cells/ml) were seeded in 384 well plates (Aurora 384 IQ-EB Black/Clear Plates) 20–26 h prior to the actual infection. 2 h prior to infection, 50 nl of compound in DMSO (0.1% final DMSO concentration per well) were transferred with a PinTool (GNF Systems) into the assay plates (10 µM final concentration). P. yoelii sporozoites were freshly dissected from infected A. stephensi mosquito salivary glands and filtered twice with a 40-µm strainer. The HepG2 cells were then infected with 8×10^3 sporozoites per well. After infection and 1-h incubation at 37°C, the cultures were washed, new media and compound added, and further incubated with 5-fold increased concentration of penicillin/streptomycin for 48 h at 37°C before exoerythrocytic forms (EEFs) quantification of infected cells by immunofluorescence.
After washing with 1×PBS and fixation of the cells with 4% paraformaldehyde solution (EMS), membranes were permeabilised with 0.5% Triton-X-100 (Thermo Fisher Scientific) and EEFs were stained using a mouse polyclonal serum raised against the Plasmodium heat shock protein 70 (HSP70), an Alexa goat antimouse IgG, Fca-specific DyLight 649 secondary antibody (Invitrogen), and the Hoechst 33342 nucleic acid dye (Invitrogen). Stained EEFs were then quantified using the Opera Confocal High Content Screening system (PerkinElmer). Images were collected using a 20× magnification at a binning of 2 using a 365 Xeon arc lamp illumination to detect the nuclei and 635-nm laser line to excite DyLight649.
(§4) High-content imaging of infected HepG2-CD81 cells was performed as described in Meister et al.. Wells were analysed using a custom Acapella (PerkinElmer) script parameterized for this assay. In brief, images from fields inside the well were first discarded as out of focus when the intensity in the nuclear area was too low. Then hepatic cells were counted by detecting the nuclei labelled with Hoechst 33342 and parasites were segmented using the HSP70 immuno-labelling. Morphology-based (e.g., area, roundness) and intensity-based features were calculated for each object detected including the hepatocyte nuclei and the parasites. Parasitemia was set as the ratio between parasite number (Alexa fluor positive) and the hepatocyte nuclei count, determined at the same time.
(§5) When an infected mosquito bites a host, ∼100 sporozoites may be injected into the dermis from where they rapidly invade liver cells,[33]. This infective step represents the second bottleneck during transmission and therefore another potentially vulnerable point for intervention. In the absence of a practical liver stage assay measuring the formation of P. falciparum/P. vivax liver schizonts, an equivalent assay was developed in P. yoelii and used to assess the activity of the collection of molecules against this specific stage. Specifically, P. yoelii sporozoites were dissected from the salivary glands of infected mosquitoes and were allowed to invade human hepatocarcinoma cells expressing the CD81 protein. The development of the liver schizonts was monitored by immunofluorescence staining using an HSP70 antibody specific to the parasite (Figure 4A).
Figure 4 Validation and results of anti-infectives tested against P. yoelii liver stage parasites. (A) Opera-generated images from a time point experiment using a 20× objective lens. P. yoelii parasites (red) were visualized using a mouse polyclonal HSP70 antibody, and the HepG2 cells (green) were stained with Hoechst 33342 nucleic acid dye. […] (B) A dose response plot with atovaquone from data generated from the Opera imaging system. The median areas of compound-treated parasites were compared to untreated DMSO controls to determine the degree of inhibition.

[5] = system: P. falciparum asexual blood stage parasites (strains NF54, D6, K1, W2, 7G8, TM90C2A, V1/S); test: [3H]-hypoxanthine incorporation growth inhibition assay, asexual blood stage; format: cell-based, Plasmodium falciparum
Experimental: In vitro antimalarial activity was measured using the [^3H]-hypoxanthine incorporation assay with various strains of P. falciparum obtained from MR4. Results were expressed as the concentration resulting in 50% inhibition (IC50).
The half-maximal inhibitory concentrations (IC50) were determined for each molecule (Table S2).
Figure 2 The potencies of selected antimalarials against asexual blood stages. Main classes of antimalarials were tested against the blood stage of seven Plasmodium falciparum strains in the [^3H]hypoxanthine incorporation assay as described in Vennerstrom et al.. The strains tested here (obtained from MR4) were two drug-sensitive strains NF54 and D6 and five drug-resistant strains: K1, resistant to chloroquine (CQ) and pyrimethamine (PYR), origin Thailand, carries mutations in genes pfmdr1, pfcrt, pfdhfr, pfdhps; W2, resistant to CQ, PYR, quinine, cycloguanil, and sulfadoxine, origin Vietnam; 7G8, resistant to CQ and PYR, origin Brazil; TM90C2A, resistant to CQ, PYR, and MFQ, origin Thailand; and V1/S, resistant to CQ, PYR and cycloguanil, origin Vietnam. Results are expressed as the concentration resulting in 50% growth inhibition (IC50).Values are means of ≥3 independent experiments. (A) Endoperoxides. (B) 4-AQs. (C) 8-AQs and amino alcohols. (D) Antifolates, antibiotics, and others.

[6] = system: P. berghei ookinete formation; test: P. berghei ookinete development assay; format: cell-based, Plasmodium berghei; details: for effect on ookinete formation: 10 µM; for inhibition at 10 µM: Plasmodium berghei, box linked to ookinete, read-out: Inhibition at 10 μM (ookinete, Figure 5)
Experimental: Compounds and P. berghei gametocyte-infected blood were dispensed in a 96-well plate containing ookinete medium. After 24 h at 19°C, Giemsa-stained ookinetes were counted under the microscope (×40) as previously described,[28].
as §1, with “Figure 3 The transmission-blocking potential of selected antimalarials in three bioassays that cover different phases of Plasmodium vector stage development. (A)” for “(A)”, “formation. Ookinete formation was insensitive to most of the antimalarials tested.” for “formation.”, “mosquitoes. […] NPC1161-B, lumefantrine, halofantrine, and mefloquine +RS isomer were also active. (n = 4–61 observations; average ± standard error of the mean [SEM]).” for “mosquitoes.”

[7] = system: P. berghei ookinete formation; test: P. berghei ookinete development assay; format: cell-based; details: Plasmodium berghei; medium throughput fluorescent ookinete assay
[8] = system: P. falciparum oocyst formation; test: Standard membrane feed assay, P. falciparum oocysts in A. stephensi; format: in vivo, Plasmodium falciparum; details: 10 µM, gametocytes exposed 24 h before feeding
Experimental: Gametocyte cultures were produced according to the same protocol as the Pf exflagellation assay. Pooled gametocyte cultures were evenly divided between compounds in fresh medium and incubated at 37°C for 24 h. The parasite pellets were then resuspended in fresh RBCs and human serum treated with the compounds to a 50% haematocrit and immediately fed to mosquitoes as described above and then maintained at 27°C/60%RH for 10–12 d before dissection and counting.
as §1, with “Figure 3 The transmission-blocking potential of selected antimalarials in three bioassays that cover different phases of Plasmodium vector stage development. (A)” for “(A)”, “formation. Ookinete formation was insensitive to most of the antimalarials tested.” for “formation.”, “mosquitoes. […] NPC1161-B, lumefantrine, halofantrine, and mefloquine +RS isomer were also active. (n = 4–61 observations; average ± standard error of the mean [SEM]).” for “mosquitoes.”

[9] = system: P. berghei oocyst formation; test: Standard membrane feed assay, P. berghei oocysts in A. stephensi; format: in vivo, Plasmodium berghei; details: for transmission-blocking effect on P. berghei oocysts (words): 10 µM
Experimental: as §2
Supplementary file pmed.1001169.s001.tif: Figure S1 The transmission-blocking potential of selected compounds against P. berghei in standard membrane feeding assays. All antimalarials were screened at 10 µM in triplicate in independent experiments. The biological content of this assay spans gamete formation through to occyst development all within the gut of the mosquito. […] (TIF) Click here for additional data file.

HepG2 cells = test: Growth retardation of HepG2 cells
Experimental: as §3, §4, §5

[10] = 10 µM, 24 h exposure of mature gametocytes
[11] = 10 μM, box linked to gametocytes/exflagellation, read-out: Inhibition at 10 μM (gametocytes/exflagellation, Figure 5)
[12] = HepG2, box linked to liver schizont, read-out: IC50 (liver schizont, Figure 5)
[13] = read-out: inhibition of exflagellation, 10 µM, 24 h exposure of mature gametocytes

Row | SMILES | effect on exflagellation (words) [1, 10] | inhibition at 10 µM [1, 11] [%] | inhibition at 10 µM (Plasmodium oocysts) [%] | effect on sporogony / oocyst production (Plasmodium oocysts) | Cmax [3] [µM] | IC50 [4, 12] [nM] | effect on ookinete formation [6] | inhibition at 10 µM [6] [%] | IC50 [7] [nM] | transmission-blocking effect on P. falciparum oocysts (words) [8] | inhibition at 10 µM [1, 13] [%] | also measured
1 | c1cc([C@H]2CC[C@]3(CC2)OO[C@]2(O3)C3CC4CC(C3)CC2C4)ccc1OCCN1CCOCC1 [OZ439] | strong inhibitors of gametocyte maturation/gamete formation | > 60 | > 90 | impact sporogony |  |  |  |  |  |  |  | clinical efficacy [2]: equivalent efficacy in the treatment of P. falciparum and P. vivax patients
2 | CO[C@H]1O[C@@H]2O[C@@]3(C)CC[C@H]4[C@H](C)CC[C@@H]([C@H]1C)[C@@]24OO3 [artemether] |  |  |  |  | 0.1 | < 1000 |  |  |  |  |  | 
3 | O=C1C(O)=C([C@H]2CC[C@H](c3ccc(Cl)cc3)CC2)C(=O)c2ccccc21 [atovaquone] |  |  |  |  |  | < 1000 | strongly inhibited ookinete formation | > 80 | 65 |  |  | potency range against blood stages ([5]; P. falciparum blood stages): subnanomolar range; IC50 ([5]; Plasmodium falciparum, Erythrocyte, box linked to blood stage schizont, read-out: IC50 (erythrocyte schizont, Figure 5)): < 1 nM; fold difference in potency between strains ([5]; between the strains D6 and V1/S): ≤ 10 fold
4 | CCCCN(CCCC)CC(O)c1cc(Cl)cc2c1-c1ccc(Cl)cc1/C2=C/c1ccc(Cl)cc1 (stereo not drawn) [lumefantrine] | only moderate or no inhibition of exflagellation |  | > 90 | impairs development in the vector | 13.9 |  | little activity |  |  | active; also recorded: impaired sporogony |  | IC50 ([5]; Plasmodium falciparum): < 4 nM; effect on exflagellation (words) ([1]; 10 µM, 24 h exposure of mature gametocytes, listed as Lumefantrine): little activity; transmission-blocking effect on P. falciparum oocysts (words) ([8]; listed as Lumefantrine): showed activity; transmission-blocking effect on P. berghei oocysts (words) [9]: impaired sporogony; also recorded: most notable transmission-blocking activity; transmission-blocking effect on P. berghei oocysts (words) ([9]; listed as Lumefantrine): showed activity; inhibition at 10 µM ([9]; Plasmodium berghei): > 90%
5 | OC(c1cc(C(F)(F)F)nc2c(C(F)(F)F)cccc12)C1CCCCN1 (stereo not drawn) [mefloquine (+RS)] |  | > 60 | > 90 |  |  |  |  |  |  | totally blocked transmission | > 80 | IC50 ([5]; strain not specified): < 10 nM; transmission-blocking effect on P. falciparum oocysts (words) ([8]; listed as mefloquine +RS isomer): active
6 | COc1ccc2nc3cc(Cl)ccc3c(Nc3cc(CN4CCCC4)c(O)c(CN4CCCC4)c3)c2n1 [pyronaridine] | inhibited P. falciparum exflagellation | > 60 |  |  |  | < 1000 | strongly inhibited ookinete formation | > 80 | 6000 |  | > 80 | IC50 ([5]; Plasmodium falciparum, asexual blood stage, all parasite lines): 2 to 10 nM; effect on exflagellation (words) ([1]; 10 µM, 24 h exposure of mature gametocytes, listed as Pyronaridine): inhibited exflagellation totally; IC50 (HepG2 cells; Homo sapiens, HepG2, read-out: IC50 HepG2): < 170 nM; CI (cytotoxicity index) (HepG2 cells; IC50 HepG2 compared to IC50 parasite): <0.63; IC50 ([4]; HepG2, development of P. yoelii liver schizonts following infection of HepG2 cells, read-out: IC50 Parasite): 270 ± 130 nM; IC50 ([4]; HepG2, dose response, read-out: IC50 liver stage): < 3000 nM
